Where a SMILES comes first, the peptide text is derived from it. Bridges are numbered along the chain shown (N, C = ends). [ ]: non-standard residue; d: D form. Orn = NCCC[C@H](N)C(=O)O; Mpa = O=C(O)CCS

Data on 30 compounds can be found in ChEMBL document CHEMBL5665443, “Enzyme Inhibitor Single Concentration assay results for EUbOPEN Chemogenomics Library” (2024).

Test [1] addresses T1, Single-strand selective monofunctional uracil DNA glycosylase (Homo sapiens) (UniProt Q53HV7).
T1 sequence (whole entry): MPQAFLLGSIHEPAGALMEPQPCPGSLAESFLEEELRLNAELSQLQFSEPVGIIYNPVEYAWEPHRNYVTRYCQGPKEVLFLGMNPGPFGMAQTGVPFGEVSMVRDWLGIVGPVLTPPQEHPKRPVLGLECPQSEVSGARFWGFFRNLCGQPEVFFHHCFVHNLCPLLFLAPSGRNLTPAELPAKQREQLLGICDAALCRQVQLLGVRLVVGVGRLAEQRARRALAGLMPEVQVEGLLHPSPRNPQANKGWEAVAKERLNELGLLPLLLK
The conditions noted are these: Compound Concentration 10.0 uM, Hit No.
Description: Inhibition of SMUG1 by quantifying inhibition of SMUG1-mediated cleavage and dissociation of quenched duplex DNA oligonucleotides, measured as fluorescence at 594 nm. To generate a functional strand incision and increase turn-over this assay is coupled to APE1.

The target in test [2] is Endonuclease 8-like 1 (Homo sapiens) (UniProt Q96FI4). To be noted: Hit No.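 Note: fluorescence at 594 nm from quenched duplex DNA oligonucleotides released by NEIL1 cleavage and strand separation, reported as reduction of this enzyme activity.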
Sequence of Endonuclease 8-like 1 (Homo sapiens) (Q96FI4 whole entry): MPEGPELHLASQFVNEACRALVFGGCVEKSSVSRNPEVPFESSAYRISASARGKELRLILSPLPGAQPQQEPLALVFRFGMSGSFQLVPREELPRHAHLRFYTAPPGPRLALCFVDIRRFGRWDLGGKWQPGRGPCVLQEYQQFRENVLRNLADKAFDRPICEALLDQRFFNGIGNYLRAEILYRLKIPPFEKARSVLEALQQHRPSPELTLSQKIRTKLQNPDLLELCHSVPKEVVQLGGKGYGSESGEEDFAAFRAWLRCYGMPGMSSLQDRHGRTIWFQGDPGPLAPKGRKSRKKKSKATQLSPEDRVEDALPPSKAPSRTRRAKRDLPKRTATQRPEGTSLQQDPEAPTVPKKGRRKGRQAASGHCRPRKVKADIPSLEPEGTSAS
Description: Inhibition of NEIL1 by quantifying inhibition of NEIL1-mediated cleavage and dissociation of quenched duplex DNA oligonucleotides, measured as fluorescence at 594 nm.
Test [3] deals with Uracil-DNA glycosylase (Homo sapiens) (UniProt P13051). To be noted: Hit No.
Sequence of Uracil-DNA glycosylase (Homo sapiens) (P13051 whole entry): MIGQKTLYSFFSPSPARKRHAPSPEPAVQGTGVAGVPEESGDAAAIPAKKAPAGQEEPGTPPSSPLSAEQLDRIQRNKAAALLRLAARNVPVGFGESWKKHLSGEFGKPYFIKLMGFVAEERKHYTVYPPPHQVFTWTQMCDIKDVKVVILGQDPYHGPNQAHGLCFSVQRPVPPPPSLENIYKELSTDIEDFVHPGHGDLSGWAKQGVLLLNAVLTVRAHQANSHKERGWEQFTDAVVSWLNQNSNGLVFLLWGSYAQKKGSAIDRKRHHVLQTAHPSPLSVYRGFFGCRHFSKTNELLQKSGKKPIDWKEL
Description: Inhibition of UNG by quantifying inhibition of UNG-mediated cleavage and dissociation of quenched duplex DNA oligonucleotides, measured as fluorescence at 594 nm. To generate a functional strand incision and increase turn-over this assay is coupled to APE1.
Test [4] deals with G/T mismatch-specific thymine DNA glycosylase (Homo sapiens) (UniProt Q13569). The conditions noted are these: Hit No.
Sequence of G/T mismatch-specific thymine DNA glycosylase (Homo sapiens) (Q13569 whole entry): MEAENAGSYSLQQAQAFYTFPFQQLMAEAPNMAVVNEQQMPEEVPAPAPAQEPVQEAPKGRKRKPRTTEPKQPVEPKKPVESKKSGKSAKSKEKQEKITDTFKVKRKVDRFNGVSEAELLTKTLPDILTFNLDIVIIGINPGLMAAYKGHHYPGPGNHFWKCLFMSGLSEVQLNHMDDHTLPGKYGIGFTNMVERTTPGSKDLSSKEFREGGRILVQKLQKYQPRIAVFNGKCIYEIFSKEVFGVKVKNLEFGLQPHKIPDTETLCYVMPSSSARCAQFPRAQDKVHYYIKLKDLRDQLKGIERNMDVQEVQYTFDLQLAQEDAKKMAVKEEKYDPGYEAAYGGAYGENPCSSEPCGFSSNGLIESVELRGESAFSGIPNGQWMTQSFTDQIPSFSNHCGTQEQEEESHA
Description: Inhibition of TDG by quantifying inhibition of TDG-mediated cleavage and dissociation of quenched duplex DNA oligonucleotides, measured as fluorescence at 594 nm. To generate a functional strand incision and increase turn-over this assay is coupled to APE1.
In test [5] the target is N-glycosylase/DNA lyase (Homo sapiens) (UniProt O15527). To be noted: Compound Concentration 10.0 uM, Hit No.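 Note: OGG1 cleavage of a quenched duplex DNA oligonucleotide, coupled to APE1 for strand incision, read as fluorescence at 594 nm.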
Sequence of N-glycosylase/DNA lyase (Homo sapiens) (O15527 whole entry, the tested form may be a part): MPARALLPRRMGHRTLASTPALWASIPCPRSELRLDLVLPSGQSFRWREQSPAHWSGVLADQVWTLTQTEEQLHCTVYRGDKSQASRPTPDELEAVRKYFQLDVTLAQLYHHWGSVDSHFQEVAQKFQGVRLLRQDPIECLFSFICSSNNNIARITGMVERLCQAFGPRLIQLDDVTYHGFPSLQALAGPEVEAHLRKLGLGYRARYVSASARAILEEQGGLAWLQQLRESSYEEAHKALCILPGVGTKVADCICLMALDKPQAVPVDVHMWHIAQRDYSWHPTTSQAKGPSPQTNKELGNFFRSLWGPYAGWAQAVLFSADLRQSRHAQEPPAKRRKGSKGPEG
Description: Inhibition of OGG1 by quantifying inhibition of OGG1-mediated cleavage and dissociation of quenched duplex DNA oligonucleotides, measured as fluorescence at 594 nm. To generate a functional strand incision and increase turn-over this assay is coupled to APE1.
In test [6] the target is Methyl-CpG-binding domain protein 4 (Homo sapiens) (UniProt O95243). To be noted: Hit No.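 Note: MBD4 activity read as fluorescence at 594 nm from cleavage and release of a quenched duplex DNA oligonucleotide, with APE1 coupled to incise the strand and raise turnover.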
Sequence of Methyl-CpG-binding domain protein 4 (Homo sapiens) (O95243 whole entry, the tested form may be a part): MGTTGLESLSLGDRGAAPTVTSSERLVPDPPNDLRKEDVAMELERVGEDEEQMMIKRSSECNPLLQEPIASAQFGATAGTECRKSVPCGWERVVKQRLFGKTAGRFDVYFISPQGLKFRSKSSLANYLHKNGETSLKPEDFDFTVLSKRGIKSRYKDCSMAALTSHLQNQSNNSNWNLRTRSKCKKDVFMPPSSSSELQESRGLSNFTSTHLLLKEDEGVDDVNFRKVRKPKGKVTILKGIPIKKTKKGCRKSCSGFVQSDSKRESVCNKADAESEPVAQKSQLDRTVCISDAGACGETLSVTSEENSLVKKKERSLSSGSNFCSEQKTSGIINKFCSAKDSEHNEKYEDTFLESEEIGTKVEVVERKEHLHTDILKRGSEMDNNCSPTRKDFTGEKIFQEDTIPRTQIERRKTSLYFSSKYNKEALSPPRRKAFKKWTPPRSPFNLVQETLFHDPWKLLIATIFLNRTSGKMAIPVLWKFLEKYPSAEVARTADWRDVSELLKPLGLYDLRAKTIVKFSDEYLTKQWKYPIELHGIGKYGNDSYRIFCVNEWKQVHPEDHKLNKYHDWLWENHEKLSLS
Description: Inhibition of MBD4 by quantifying inhibition of MBD4-mediated cleavage and dissociation of quenched duplex DNA oligonucleotides, measured as fluorescence at 594 nm. To generate a functional strand incision and increase turn-over this assay is coupled to APE1.
In test [7] the target is T2, Endonuclease 8-like 2 (Homo sapiens) (UniProt Q969S2).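 Note: fluorescence at 594 nm reports NEIL2 cutting and release of a quenched double-stranded DNA oligo substrate, reduced signal read as inhibition.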
T2 sequence (whole entry): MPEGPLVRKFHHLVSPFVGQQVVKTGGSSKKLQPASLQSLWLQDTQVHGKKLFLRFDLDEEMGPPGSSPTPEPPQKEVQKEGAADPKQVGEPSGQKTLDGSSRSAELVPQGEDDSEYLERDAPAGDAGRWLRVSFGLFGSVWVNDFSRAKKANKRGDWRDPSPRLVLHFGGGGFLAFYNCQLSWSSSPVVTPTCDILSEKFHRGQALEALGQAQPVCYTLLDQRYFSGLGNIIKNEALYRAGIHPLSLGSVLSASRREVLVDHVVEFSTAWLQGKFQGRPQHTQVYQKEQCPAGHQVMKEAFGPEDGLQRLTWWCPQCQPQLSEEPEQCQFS
The conditions noted are these: Compound Concentration 10.0 uM, Hit No.
Description: Inhibition of NEIL2 by quantifying inhibition of NEIL2-mediated cleavage and dissociation of quenched duplex DNA oligonucleotides, measured as fluorescence at 594 nm.

Regarding `CCOc1ccn(-c2ccc(F)cc2)c(=O)c1C(=O)Nc1ccc(Oc2ccnc(N)c2Cl)c(F)c1`, the inhibition was 30.4% in test [1]; 6.08% in test [2] (Compound Concentration 10.0 uM); 6.57% in test [3] (Compound Concentration 10.0 uM); 59.2% in test [4] (Compound Concentration 10.0 uM); -7.89% in test [5].
For `C=CC(=O)N1CCC([C@@H]2CCNc3c(C(N)=O)c(-c4ccc(Oc5ccccc5)cc4)nn32)CC1`, the inhibition was 20.1% in test [1]; -8.45% in test [2] (Compound Concentration 10.0 uM); -0.527% in test [3] (Compound Concentration 10.0 uM); 49.9% in test [4] (Compound Concentration 10.0 uM); 6.47% in test [5].
Regarding `CCn1c(CNC(=O)c2nc(Cl)cnc2N)[n+](CC)c2ccc(C(=O)N(C)CCN(C)C)cc21`, the inhibition was 53.4% in test [6] (Compound Concentration 10.0 uM); 12.7% in test [1]; -5.14% in test [2] (Compound Concentration 10.0 uM); 2.92% in test [3] (Compound Concentration 10.0 uM); 96.8% in test [4] (Compound Concentration 10.0 uM); 14.2% in test [5].
On to `CC[C@H]1OC(=O)[C@H](C)[C@@H](O[C@H]2C[C@@](C)(OC)[C@@H](O)[C@H](C)O2)[C@H](C)[C@@H](O[C@@H]2O[C@H](C)C[C@H](N(C)C)[C@H]2O)[C@@]2(C)CC(C)=C(O2)[C@H](C)[C@@H](O)[C@]1(C)O`, for which the inhibition in test [1] was -6.48%; in test [2] (Compound Concentration 10.0 uM), 3.06%; in test [4] (Compound Concentration 10.0 uM) it was 0.145%; in test [7] it was 4.76%.
For the compound `Cc1ccc2c(c1)c1c(n2CCc2ccc(C)nc2)CCN(C)C1`, the inhibition in test [1] is -3.57%; in test [2] (Compound Concentration 10.0 uM), -8.95%; in test [4] (Compound Concentration 10.0 uM), -5.76%; in test [7], 3.01%.
For `COc1cccc(OC)c1-c1cc(C(=O)NC2(C(=O)O)C3CC4CC(C3)CC2C4)nn1-c1ccc(C(=O)N(C)CCCN(C)C)cc1C(C)C` (stereo not drawn), the inhibition in test [6] (Compound Concentration 10.0 uM) was 10.5%; in test [2] (Compound Concentration 10.0 uM) it was 2.02%; in test [3] (Compound Concentration 10.0 uM) it was -7.25%; in test [4] (Compound Concentration 10.0 uM), 18.3%; in test [5], 3.59%; in test [7] it was 7.25%.
In the case of `O=S(=O)(c1ccccc1)c1cnc2c(N3CCNCC3)cccc2c1`, the inhibition in test [1] is -2.7%; in test [2] (Compound Concentration 10.0 uM), 6.47%; in test [3] (Compound Concentration 10.0 uM), -8.69%; in test [5], -2.8%; in test [7] it was -5.97%.
In the case of `Cc1ccc(-c2ccc3c(ccc4sc5c(c43)NCC(C)NC5=O)n2)cn1` (stereo not drawn), the inhibition in test [1] was 6.89%; in test [2] (Compound Concentration 10.0 uM), -2.5%; in test [4] (Compound Concentration 10.0 uM) it was 25.8%; in test [5], -7.16%.
For `CC(C)COc1ccc(CNC(=O)N(Cc2ccc(F)cc2)C2CCN(C)CC2)cc1`, the inhibition was 2.32% in test [2] (Compound Concentration 10.0 uM), -0.163% in test [4] (Compound Concentration 10.0 uM), -7.83% in test [5] and 8% in test [7].
For the compound `Cc1nc(-c2ccc(-c3ccc(C(=O)N4CCc5cc6c(cc54)C4(CCN(C)CC4)CO6)cc3)c(C)c2)no1`, the inhibition in test [6] (Compound Concentration 10.0 uM) is 2.3%; in test [2] (Compound Concentration 10.0 uM), -7.62%; in test [4] (Compound Concentration 10.0 uM), -5.26%; in test [7], -3.48%.
Take `Clc1ccc(CCCOCCCN2CCCCC2)cc1`: the inhibition in test [1] is -0.857%; in test [2] (Compound Concentration 10.0 uM) it was -3.47%; in test [3] (Compound Concentration 10.0 uM) it was -8.48%; in test [4] (Compound Concentration 10.0 uM), 8.64%; in test [7] it was -5.97%.
For `C[C@@H]1CN(Cc2ccc(F)cc2)CCN1C(=O)COc1ccc(Cl)cc1NC(N)=O`, the inhibition in test [6] (Compound Concentration 10.0 uM) was -0.315%; in test [1], -3.18%; in test [2] (Compound Concentration 10.0 uM), 8.25%; in test [4] (Compound Concentration 10.0 uM), -7.21%; in test [7], 1.76%.
On to `N#Cc1ccc2[nH]cc(CCCCN3CCN(c4ccc5oc(C(N)=O)cc5c4)CC3)c2c1`, for which the inhibition in test [1] was 10.3%; in test [2] (Compound Concentration 10.0 uM) it was 14.2%; in test [3] (Compound Concentration 10.0 uM), -7.29%; in test [4] (Compound Concentration 10.0 uM), -5.72%; in test [5], -2.53%.
Consider `c1cc(OCCCN2CCCCC2)ccc1CN1CCCCC1`, for which the inhibition in test [2] (Compound Concentration 10.0 uM) is -2.58%; in test [4] (Compound Concentration 10.0 uM), 13.9%; in test [5], -9.64%; in test [7], -0.733%.
For the compound `CCCCCCCCCCCCCCCCOC[C@H](COP(=O)([O-])OCC[N+](C)(C)C)OC(C)=O`, the inhibition in test [2] (Compound Concentration 10.0 uM) was -4.5%; in test [3] (Compound Concentration 10.0 uM) it was -5.53%; in test [5], 31.6%; in test [7], -9.72%.
On to `O=C(Cc1ccc(Cl)c(Cl)c1)N1CCCC[C@H]1CN1CCCC1`, for which the inhibition in test [1] was -3.13%; in test [2] (Compound Concentration 10.0 uM), -3.91%; in test [3] (Compound Concentration 10.0 uM), -9.61%; in test [5], 2.1%; in test [7], -2.48%.
As to `Cn1c(-c2csc(C3CCN(CC4=NC5N=CC=CC5N4)CC3)n2)nc2ccccc21` (stereo not drawn), the inhibition is -3.01% in test [6] (Compound Concentration 10.0 uM); -1.5% in test [2] (Compound Concentration 10.0 uM); 20.6% in test [4] (Compound Concentration 10.0 uM); -1.15% in test [5]; -5.34% in test [7].
As for `O=C(c1ccc(F)c(F)c1Nc1ccc(I)cc1F)N1CC(O)([C@@H]2CCCCN2)C1`, the inhibition was 21.9% in test [6] (Compound Concentration 10.0 uM), 13.1% in test [1], 7.28% in test [3] (Compound Concentration 10.0 uM) and 45% in test [4] (Compound Concentration 10.0 uM).
Take `CN1C2CCC1CC(OC(c1ccc(F)cc1)c1ccc(F)cc1)C2` (stereo not drawn): the inhibition in test [2] (Compound Concentration 10.0 uM) is 1.28%; in test [3] (Compound Concentration 10.0 uM), -4.51%; in test [7] it was -4.23%.
As to `Cc1cc2c(-c3ccco3)cnc(N[C@H]3CCN(C)C[C@@H]3C(=O)NC3CCCCC3)c2[nH]c1=O`, the inhibition in test [6] (Compound Concentration 10.0 uM) was 29.8%; in test [2] (Compound Concentration 10.0 uM) it was 0.316%; in test [3] (Compound Concentration 10.0 uM), -1.62%; in test [4] (Compound Concentration 10.0 uM), 22.3%; in test [7], -2.27%.
Turning to `N=C(N)SCCc1c[nH]cn1`, the inhibition was 11.4% in test [6] (Compound Concentration 10.0 uM); -7.4% in test [1]; -8.06% in test [2] (Compound Concentration 10.0 uM); -1.52% in test [4] (Compound Concentration 10.0 uM); -6.9% in test [5].
`Nc1ccc(C(=O)Nc2cccc(-c3nc(N4CCOCC4)c4oc5ncccc5c4n3)c2)cn1`: the inhibition in test [6] (Compound Concentration 10.0 uM) was -6.46%; in test [1], 9.56%; in test [2] (Compound Concentration 10.0 uM), -5.94%; in test [3] (Compound Concentration 10.0 uM), 2.33%; in test [4] (Compound Concentration 10.0 uM), 7.37%; in test [5] it was 23%.
For `CCOc1ccc(C[C@H]2NC(=O)CCSSC[C@@H](C(=O)N3CCC[C@H]3C(=O)N[C@@H](CCCN)C(=O)NCC(N)=O)NC(=O)[C@H](CC(N)=O)NC(=O)[C@H]([C@@H](C)O)NC(=O)[C@H]([C@@H](C)CC)NC2=O)cc1` ([Mpa][dY](Et)ITNCP[Orn]G-NH2; disulfide 1-6), the inhibition in test [1] was -2.21%; in test [2] (Compound Concentration 10.0 uM), 4.99%; in test [3] (Compound Concentration 10.0 uM) it was -8.02%; in test [4] (Compound Concentration 10.0 uM), -5.89%; in test [7], 9%.
Turning to `Cc1ccc(NC(=O)Nc2cc(C(F)(F)F)ccc2F)cc1Nc1ccc2c(c1)NC(=O)/C2=C\c1ccc[nH]1`, the inhibition in test [6] (Compound Concentration 1.0 uM) is -5.4%; in test [2] (Compound Concentration 1.0 uM), -7.79%; in test [3] (Compound Concentration 1.0 uM) it was -3.3%; in test [4] (Compound Concentration 1.0 uM), 24.1%.
Turning to `NC(=O)[C@@H]1CCCN1C(=O)[C@H](Cc1c[nH]cn1)NC(=O)[C@@H]1CCC(=O)N1`, the inhibition is -3.57% in test [6] (Compound Concentration 10.0 uM); -2.65% in test [1]; -9.1% in test [2] (Compound Concentration 10.0 uM); 10.8% in test [4] (Compound Concentration 10.0 uM); -2.75% in test [5]; 12.7% in test [7].
On to `Cc1nc2sccn2c(=O)c1CCN1CCC(=C(c2ccc(F)cc2)c2ccc(F)cc2)CC1`, for which the inhibition in test [1] is -6.91%; in test [2] (Compound Concentration 10.0 uM) it was -4.65%; in test [4] (Compound Concentration 10.0 uM), 20.8%; in test [5], 4.32%; in test [7] it was 7.75%.
As to `COc1cc(N2CCC(O)CC2)ccc1Nc1cc(Nc2ccccc2S(=O)(=O)C(C)C)c2cc[nH]c2n1`, the inhibition in test [6] (Compound Concentration 10.0 uM) stood at 13.6%; in test [1], 4.55%; in test [3] (Compound Concentration 10.0 uM), 3.96%; in test [4] (Compound Concentration 10.0 uM), 52.6%; in test [5] it was 21.1%.
As to `Cc1c(C(=O)O)cc(-c2ccc(C3CCNCC3)cc2)c2ccc(-c3ccc(C(F)(F)F)cc3)cc12`, the inhibition in test [1] was 4.5%; in test [2] (Compound Concentration 10.0 uM), -6.8%; in test [3] (Compound Concentration 10.0 uM), 3.66%; in test [4] (Compound Concentration 10.0 uM), 44.3%; in test [5], 11.4%; in test [7], -4.83%.
For `O=C(N[C@@H]1CC[C@@H](c2cccc(F)c2F)CN(CC(F)(F)F)C1=O)N1CCC(n2c(=O)[nH]c3ncccc32)CC1`, the inhibition was -5.1% in test [2] (Compound Concentration 10.0 uM), 0.452% in test [4] (Compound Concentration 10.0 uM), -8.48% in test [5] and 4.76% in test [7].
With `N#Cc1cccc(C(=O)Nc2cc(-c3ccccc3)nn2-c2ccccc2)c1`, the inhibition in test [1] was -0.276%; in test [2] (Compound Concentration 10.0 uM), -1.98%; in test [4] (Compound Concentration 10.0 uM), -2.1%; in test [5] it was -5.93%; in test [7], 0.764%.

One may read the inhibition as the relative decrease from the control value, in per cent.
